Broadly, the Emax is the greatest response seen or fitted, relative to the assay's reference.

For experiment [1], the target named is human muscarinic M3 receptor (Homo sapiens, UniProt P20309). Briefly: Alphascreen Surefire phospho-ERK1/2 functional assay, M3. The conditions noted are these: for Emax: CHO; for EC50: pEC50 M3, CHO cells stably expressing human M3. A general note: Bead proximity is the source of the signal in Alpha formats.
For experiment [2], the target named is T1, human muscarinic M4 receptor (Homo sapiens, UniProt P08173).
T1 construct: expressed in transfected cells
T1 sequence (P08173 1-479): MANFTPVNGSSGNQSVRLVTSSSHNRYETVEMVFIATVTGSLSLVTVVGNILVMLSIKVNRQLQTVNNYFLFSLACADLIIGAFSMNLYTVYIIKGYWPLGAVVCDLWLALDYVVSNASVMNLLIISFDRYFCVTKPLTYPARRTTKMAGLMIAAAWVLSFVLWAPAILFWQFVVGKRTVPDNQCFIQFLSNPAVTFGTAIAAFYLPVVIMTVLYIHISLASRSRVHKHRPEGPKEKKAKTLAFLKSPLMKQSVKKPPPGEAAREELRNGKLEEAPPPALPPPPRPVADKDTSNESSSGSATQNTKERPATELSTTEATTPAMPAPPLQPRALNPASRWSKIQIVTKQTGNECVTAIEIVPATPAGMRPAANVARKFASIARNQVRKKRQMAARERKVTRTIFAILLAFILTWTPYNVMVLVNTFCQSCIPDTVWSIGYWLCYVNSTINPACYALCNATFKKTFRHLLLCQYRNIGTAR
Briefly: Alphascreen Surefire phospho-ERK1/2 functional assay, M4. The following applies: for EC50: phospho-ERK1/2, * = variable results; for Emax: CHO. Format: cell-based.
Experimental: CHO cells stably expressing the human muscarinic M1, M2, M3 or M4 receptor were plated (25K/well) onto 96-well tissue culture plates in MEM-alpha+10% dialysed FBS. Once adhered, cells were serum-starved overnight. Agonist stimulation was performed by the addition of 5 μL agonist to the cells for 5 min (37° C.). Media was removed and 50 μL of lysis buffer added. After 15 min, a 4 μL sample was transferred to 384-well plate and 7 μL of detection mixture added. Plates were incubated for 2 h with gentle agitation in the dark and then read on a PHERAstar plate reader.
pEC50 and Emax figures were calculated from the resulting data for each receptor subtype.

The target in experiment [3] is T2, human muscarinic M2 receptor (Homo sapiens, UniProt P08172).
T2 sequence (P08172 1-466): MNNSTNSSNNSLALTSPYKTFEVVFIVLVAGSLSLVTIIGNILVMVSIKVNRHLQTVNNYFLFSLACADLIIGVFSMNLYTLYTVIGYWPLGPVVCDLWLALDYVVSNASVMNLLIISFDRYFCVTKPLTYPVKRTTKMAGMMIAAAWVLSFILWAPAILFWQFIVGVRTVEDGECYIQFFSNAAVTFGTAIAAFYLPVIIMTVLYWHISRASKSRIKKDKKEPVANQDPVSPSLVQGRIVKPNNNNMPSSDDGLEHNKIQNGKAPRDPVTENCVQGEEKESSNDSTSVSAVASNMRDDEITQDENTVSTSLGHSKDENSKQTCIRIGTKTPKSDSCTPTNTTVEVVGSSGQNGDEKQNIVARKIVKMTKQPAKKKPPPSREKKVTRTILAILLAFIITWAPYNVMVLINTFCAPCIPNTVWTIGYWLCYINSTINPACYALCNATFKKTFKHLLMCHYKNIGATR
Briefly: Alphascreen Surefire phospho-ERK1/2 functional assay, M2. The conditions noted are these: for Emax: CHO.

For experiment [4], the target named is T3, human muscarinic M1 receptor (Homo sapiens, UniProt P11229).
T3 sequence (P11229 1-460): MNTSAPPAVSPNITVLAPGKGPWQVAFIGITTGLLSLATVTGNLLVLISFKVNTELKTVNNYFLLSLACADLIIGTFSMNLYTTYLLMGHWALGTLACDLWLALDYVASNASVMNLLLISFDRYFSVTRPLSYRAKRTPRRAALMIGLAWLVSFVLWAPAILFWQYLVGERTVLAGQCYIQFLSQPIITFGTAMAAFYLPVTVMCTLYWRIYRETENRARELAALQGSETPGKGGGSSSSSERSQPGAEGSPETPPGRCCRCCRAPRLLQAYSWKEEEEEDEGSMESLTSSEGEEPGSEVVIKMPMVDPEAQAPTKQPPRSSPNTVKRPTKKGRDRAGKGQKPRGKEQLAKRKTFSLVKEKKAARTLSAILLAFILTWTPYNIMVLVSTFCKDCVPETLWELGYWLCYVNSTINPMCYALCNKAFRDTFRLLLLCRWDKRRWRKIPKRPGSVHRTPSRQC
Briefly: Alphascreen Surefire phospho-ERK1/2 functional assay, M1. In kind it is cell-based. The following applies: for EC50: phospho-ERK1/2, * = variable results; for Emax: CHO.

Setting [5] is: CHO cells stably expressing human M4, read-out: pEC50 M4 (converted).
Where [6] appears, read: CHO cells stably expressing human M1, read-out: pEC50 M1 (converted).
Setting [7] is: phospho-ERK1/2, * = variable results.
Setting [8] is: read-out: % Emax cf. ACh, M3, CHO cells stably expressing human M3, relative to ACh.
Setting [9] is: read-out: % Emax cf. ACh, M4, CHO cells stably expressing human M4, relative to ACh.
Where [10] appears, read: read-out: % Emax cf. ACh, M2, CHO cells stably expressing human M2, relative to ACh.
Setting [11] is: read-out: % Emax cf. ACh, M1, CHO cells stably expressing human M1, relative to ACh.

Read-outs that look alike come from different tables or passages of the source.

human muscarinic M3 receptor, sequence (P20309 whole entry): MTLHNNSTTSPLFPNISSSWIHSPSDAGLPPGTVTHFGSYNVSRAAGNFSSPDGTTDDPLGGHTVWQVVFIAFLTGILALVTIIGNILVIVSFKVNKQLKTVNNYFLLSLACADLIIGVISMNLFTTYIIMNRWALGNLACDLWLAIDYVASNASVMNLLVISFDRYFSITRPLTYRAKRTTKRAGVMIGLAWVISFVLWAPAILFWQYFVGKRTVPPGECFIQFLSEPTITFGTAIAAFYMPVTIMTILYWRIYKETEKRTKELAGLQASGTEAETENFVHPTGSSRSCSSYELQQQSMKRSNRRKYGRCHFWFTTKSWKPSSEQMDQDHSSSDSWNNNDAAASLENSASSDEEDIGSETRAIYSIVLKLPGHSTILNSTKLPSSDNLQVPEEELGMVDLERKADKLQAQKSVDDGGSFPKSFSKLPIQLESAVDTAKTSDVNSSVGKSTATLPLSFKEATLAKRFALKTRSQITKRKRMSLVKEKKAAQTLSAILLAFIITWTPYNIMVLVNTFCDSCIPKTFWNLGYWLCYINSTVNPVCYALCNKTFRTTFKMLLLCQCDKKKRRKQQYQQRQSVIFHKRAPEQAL

For `CCOC(=O)N1CCC2(CC(N3CCC(n4cc(C)cn4)CC3)C2)C1` (single isomer, unassigned) [1-34 Isomer 2, ethyl 2-[4-(4-methyl-1H-pyrazol-1-yl)piperidin-1-yl]-6-azaspiro[3.4]octane-6-carboxylate], the “pEC50 M3” value in experiment [1] (CHO cells stably expressing human M3, phospho-ERK1/2, * = variable results) is reported as less than 4.7. Moreover, the “% Emax cf. ACh, M3” value in experiment [1] (CHO cells stably expressing human M3, relative to ACh) was determined as 0%. Also, the values for the EC50 in experiment [2] (setting [5]) and in experiment [4] (setting [6]) were 2.51 nM and 7.94 nM, respectively. Moreover, the “% Emax cf. ACh, M4” value in experiment [2] (CHO cells stably expressing human M4, relative to ACh) was found to be 117%. Besides, the “pEC50 M2” value in experiment [3] (CHO cells stably expressing human M2, phospho-ERK1/2, * = variable results) is reported as less than 4.7. In experiment [3] (CHO cells stably expressing human M2, relative to ACh), the “% Emax cf. ACh, M2” value stood at 43%. The “% Emax cf. ACh, M1” value in experiment [4] (CHO cells stably expressing human M1, relative to ACh) is reported as 130%.
On to `CCOC(=O)N1CCC2(CC(N3CCC(OC)(c4ncc[nH]4)CC3)C2)C1` (single isomer, unassigned) [1-38 Isomer 2, ethyl 2-[4-(1H-imidazol-2-yl)-4-methoxypiperidin-1-yl]-6-azaspiro[3.4]octane-6-carboxylate], for which the Emax in experiment [1] (read-out: % Emax cf. ACh, M3) stood at 19%; in experiment [2] (read-out: % Emax cf. ACh, M4) it was 98%; in experiment [3] (read-out: % Emax cf. ACh, M2) it was 14%; in experiment [4] (read-out: % Emax cf. ACh, M1), 31%. For the same compound, the EC50 in experiment [1] (setting [7]) was more than 20000 nM; in experiment [2] (pEC50 M4, CHO cells stably expressing human M4), 794 nM; in experiment [3], more than 20000 nM; in experiment [4] (pEC50 M1, CHO cells stably expressing human M1), 100 nM.
For the compound `COC(=O)N1CCC2(CC(N3CCC(n4cc(C)cn4)CC3)C2)C1` (single isomer, unassigned) [1-42 Isomer 2, methyl 2-[4-(4-methyl-1H-pyrazol-1-yl)piperidin-1-yl]-6-azaspiro[3.4]octane-6-carboxylate], the maximum response (Emax) amounted to 16% in experiment [1] (setting [8]), 76% in experiment [2] (setting [9]), 27% in experiment [3] (setting [10]) and 123% in experiment [4] (setting [11]). For the same compound, the EC50 in experiment [1] (setting [7]) is more than 20000 nM; in experiment [2] (setting [5]), 6.31 nM; in experiment [3], 316 nM; in experiment [4] (setting [6]), 39.8 nM.
Turning to `CCOC(=O)N1CCC2(CC(N3CCC(c4ccon4)CC3)C2)C1` (single isomer, unassigned) [1-43 Isomer 2, ethyl 2-[4-(1,2-oxazol-3-yl)piperidin-1-yl]-6-azaspiro[3.4]octane-6-carboxylate], the Emax is 8% in experiment [1] (setting [8]), 61% in experiment [2] (setting [9]), 7% in experiment [3] (setting [10]) and 32% in experiment [4] (setting [11]). For the same compound, the EC50 in experiment [1] (setting [7]) is more than 20000 nM; in experiment [2] (setting [5]), 31.6 nM; in experiment [3], more than 20000 nM; in experiment [4] (setting [6]) it was 158 nM.
Consider `CCOC(=O)N1CCC2(CC(N3CCC(n4ccc(C)n4)CC3)C2)C1` (single isomer, unassigned) [1-44 Isomer 2, ethyl 2-[4-(3-methyl-1H-pyrazol-1-yl)piperidin-1-yl]-6-azaspiro[3.4]octane-6-carboxylate], for which the maximum response (Emax) in experiment [1] (setting [8]) amounted to 7%; in experiment [2] (setting [9]) it was 126%; in experiment [3] (setting [10]) it was 80%; in experiment [4] (setting [11]), 126%. Besides, the EC50 is more than 20000 nM in experiment [1] (setting [7]), 6.31 nM in experiment [2] (setting [5]), more than 20000 nM in experiment [3] and 79.4 nM in experiment [4] (setting [6]).
For `COC(=O)N1CCC2(CC(N3CCC(n4ccc(C)n4)CC3)C2)C1` (single isomer, unassigned) [1-45 Isomer 2, methyl 2-[4-(3-methyl-1H-pyrazol-1-yl)piperidin-1-yl]-6-azaspiro[3.4]octane-6-carboxylate], the Emax in experiment [1] (setting [8]) worked out at 26%; in experiment [2] (setting [9]) it was 80%; in experiment [3] (setting [10]), 56%; in experiment [4] (setting [11]), 80%. Also, the EC50 was more than 20000 nM in experiment [1] (setting [7]), 20 nM in experiment [2] (setting [5]), 1580 nM in experiment [3] and 316 nM in experiment [4] (setting [6]).
For `CCOC(=O)N1CCC2(CC(N3CCC(c4ccnn4CC)CC3)C2)C1` (single isomer, unassigned) [1-47 Isomer 2, ethyl 2-[4-(1-ethyl-1H-pyrazol-5-yl)piperidin-1-yl]-6-azaspiro[3.4]octane-6-carboxylate], the Emax in experiment [1] (setting [8]) was found to be 19%; in experiment [2] (setting [9]) it was 81%; in experiment [3] (setting [10]), 82%; in experiment [4] (setting [11]), 7%. Also, the EC50 in experiment [1] (setting [7]) is more than 20000 nM; in experiment [2] (setting [5]), 15.8 nM; in experiment [3], not below 20000 nM; in experiment [4] (setting [6]), more than 20000 nM.
With `CCCn1nccc1C1CCN(C2CC3(CCN(C(=O)OCC)C3)C2)CC1` (single isomer, unassigned) [1-49 Isomer 2, ethyl 2-[4-(1-propyl-1H-pyrazol-5-yl)piperidin-1-yl]-6-azaspiro[3.4]octane-6-carboxylate], the Emax in experiment [1] (setting [8]) was 9%; in experiment [2] (setting [9]), 92%; in experiment [3] (setting [10]) it was 21%; in experiment [4] (setting [11]), 71%. In addition, the EC50 in experiment [1] (setting [7]) was more than 20000 nM; in experiment [2] (setting [5]), 79.4 nM; in experiment [3], more than 20000 nM; in experiment [4] (setting [6]), 6310 nM.
In the case of `CCOC(=O)N1CCC2(CC(N3CCC(c4cscn4)CC3)C2)C1` (single isomer, unassigned) [1-50 Isomer 2, ethyl 2-[4-(1,3-thiazol-4-yl)piperidin-1-yl]-6-azaspiro[3.4]octane-6-carboxylate], the Emax in experiment [1] (setting [8]) was determined as 8%; in experiment [2] (setting [9]), 122%; in experiment [3] (setting [10]), 20%; in experiment [4] (setting [11]), 124%. Further, the EC50 was more than 20000 nM in experiment [1] (setting [7]), 2 nM in experiment [2] (setting [5]), more than 20000 nM in experiment [3] and 7.94 nM in experiment [4] (setting [6]).
Turning to `CCOC(=O)N1CCC2(CC(N3CCC(c4nccn4CC#N)CC3)C2)C1` (single isomer, unassigned) [1-52 Isomer 2, ethyl 2-{4-[1-(cyanomethyl)-1H-imidazol-2-yl]piperidin-1-yl}-6-azaspiro[3.4]octane-6-carboxylate], the maximal response (Emax) is 20% in experiment [1] (setting [8]), 106% in experiment [2] (setting [9]), 15% in experiment [3] (setting [10]) and 102% in experiment [4] (setting [11]). The EC50 was more than 20000 nM in experiment [1] (setting [7]), 15.8 nM in experiment [2] (setting [5]), more than 20000 nM in experiment [3] and 158 nM in experiment [4] (setting [6]).
Turning to `CCOC(=O)N1CCC2(CC(N3CCC(c4nn(C)cc4C)CC3)C2)C1` (single isomer, unassigned) [1-56 Isomer 2, ethyl 2-[4-(1,4-dimethyl-1H-pyrazol-3-yl)piperidin-1-yl]-6-azaspiro[3.4]octane-6-carboxylate], the Emax in experiment [1] (setting [8]) turned out to be 3%; in experiment [2] (setting [9]), 89%; in experiment [3] (setting [10]) it was 0%; in experiment [4] (setting [11]), 30%. The EC50 in experiment [1] (setting [7]) was more than 20000 nM; in experiment [2] (setting [5]), 126 nM; in experiment [3], more than 20000 nM; in experiment [4] (setting [6]) it was 1000 nM.

The values above are taken from patent US9926297B2, “Bicyclic AZA compounds as muscarinic M1 receptor and/or M4 receptor agonists” (Heptares Therapeutics Limited, priority 2014, dated 2018).
